# Structures can show the parent of a compound that is named as a salt. Where two headings read alike, the source gives them in different places.
# What was measured:
# [1] = in vivo, sc
# Solubility of crystals = assay type: physicochemical
# in vivo [2] = conditions: mouse, male mice, intravenous, as base, read-out: LD50 in mg/kg (base) intravenously
# Procedure: The compounds according to the invention were the subject of a toxicological study to determine the lethal doses (LD50) in male mice, the compounds being administered intravenously. Metoclopramide was employed as a standard. The compounds of […] were tested.
# Table (I) sets out the values with respect to said (LD50) tests.
# [3] = test system: stereotyped movements induced by apomorphine; test: Antagonism of stereotyped movements induced by apomorphine in rats (central antidopaminergic effect); assay type: in vivo
# Procedure: Another pharmacological study was conducted to determine the central antidopaminergic effects of the compounds of the invention, by evaluating the power of their antagonistic effect in regard to the stereotyped movements induced by apomorphine in two different doses (1.25 mg/kg/IV and 0.5 mg/kg/SC) in rats. The tests were conducted according to conventional procedures.
# in vivo [4] = conditions: sc
# [5] = Rattus norvegicus, ip, I.P., at 64 mg/kg, read-out: inhibitor effect on stereotypies in regard to apomorphine, Intraperitoneal (I.P)
# [6] = Rattus norvegicus, ip, I.P., read-out: inhibitor effect on stereotypies in regard to apomorphine, Intraperitoneal (I.P)
# [7] = I.P., at 64 mg/kg, result in words
Structure (SMILES),Cataleptic Activity (Subcutaneous) ([1]; 200 mg/kg),LD50 (in vivo [2]) [mg/kg],"Stereotypies in regard to apomorphine, Subcutaneous (S.C.) ([3]; S.C., at 200 mg/kg)","inhibition in vivo at 64 mg/kg [3, 5] [%]",also measured
"CCN1CCN=C1CNC(=O)c1cc(Cl)c(N)cc1OC [Example 1, N-[(1-ETHYL 2-IMIDAZOLIN-2-YL)METHYL] 2-METHOXY 4-AMINO 5-CHLOROBENZAMIDE]",inactive,27.1 to 27.2,inactive,–,"solubility in chloroform (Solubility of crystals; chloroform): highly soluble; solubility in dilute acetic acid (Solubility of crystals; dilute acetic acid): soluble; Stereotypies in regard to apomorphine, Intraperitoneal (I.P) ([3]; I.P., at 50 mg/kg): inactive"
"C=CCN1CCN=C1CNC(=O)c1cc(Cl)c(N)cc1OC [Example 2, N-[(1-ALLYL 2-IMIDAZOLIN-2-YL)METHYL] 2-METHOXY 4-AMINO 5-CHLOROBENZAMIDE]",inactive,31.8,–,–,–
"COc1cc(N)c(Cl)cc1C(=O)NCC1=NCCN1Cc1ccccc1 [Example 3, N-[(1-benzyl 2-imidazolin-2-yl)methyl] 2-methoxy 4-amino 5-chlorobenzamide Hydrochloride]",inactive,47.8 to 48.5,inactive,19,–
"COc1cc(N)c(Cl)cc1C(=O)NCC1=NCCN1CC1CC1 [Example 4, N-[(1-CYCLOPROPYLMETHYL 2-IMIDAZOLIN-2-YL)METHYL] 2-METHOXY 4-AMINO 5-CHLOROBENZAMIDE]",inactive,–,–,–,"inhibition in vivo at 32 mg/kg [3, 6]: 26%; Stereotypies in regard to apomorphine, Subcutaneous (S.C.) ([3]; S.C., at 100 mg/kg): inactive"
"C=CCOc1cc(N)c(Cl)cc1C(=O)NCC1=NCCN1CC [Example 5, N-[(1-ETHYL 2-IMIDAZOLIN-2-YL)METHYL] 2-ALLYLOXY 4-AMINO 5-CHLOROBENZAMIDE]",inactive,25.5 to 26.1,inactive,–,"inhibition in vivo at 32 mg/kg [3, 6]: 8%"
"CCN1CCN=C1CNC(=O)c1cc(Br)c(N)cc1OC [Example 6, N-[(1-ETHYL 2-IMIDAZOLIN-2-YL)METHYL] 2-METHOXY 4-AMINO 5-BROMOBENZAMIDE]",–,–,inactive,–,"Cataleptic Activity (Subcutaneous) ([1]; 100 mg/kg): inactive; inhibition in vivo at 32 mg/kg [3, 6]: 20%"
"CCN1CCN=C1CN(C)C(=O)c1cc(Cl)c(N)cc1OC [Example 7, N-METHYL N-[(1-ETHYL 2-IMIDAZOLIN-2-YL)METHYL] 2-METHOXY 4-AMINO 5-CHLOROBENZAMIDE METHANE SULPHONATE]",inactive,23.4 to 24.4,inactive,–,"Stereotypies in regard to apomorphine, Intraperitoneal (I.P) [3, 7]: inactive"
"COc1cc(N)c(Cl)cc1C(=O)NCC1=NCCN1C [Example 8, N-[(1-METHYL 2-IMIDAZOLIN-2-YL)METHYL]2-METHOXY 4-AMINO 5-CHLOROBENZAMIDE HYDROCHLORIDE]",inactive,–,inactive,8,–
"CCN1CC(C)N=C1CNC(=O)c1cc(Cl)c(N)cc1OC (stereo not drawn) [Example 9, N-[(1-ETHYL 4-METHYL 2-IMIDAZOLIN-2-YL)METHYL] 2-METHOXY 4-AMINO 5-CHLOROBENZAMIDE]",inactive,–,–,5,"Stereotypies in regard to apomorphine, Subcutaneous (S.C.) ([3]; S.C., at 100 mg/kg): inactive"
"COc1cc(N)c(Cl)cc1C(=O)NCC1=NCCN1 [Example 10, N-[(2-IMIDAZOLIN-2-YL)METHYL] 2-METHOXY 4-AMINO 5-CHLOROBENZAMIDE NITRATE]",inactive,38.4 to 41.9,–,4,"Stereotypies in regard to apomorphine, Subcutaneous (S.C.) ([3]; S.C., at 100 mg/kg): inactive"
"CCN1CC(C)(C)N=C1CNC(=O)c1cc(Cl)c(N)cc1OC [Example 11, N-[(1-ETHYL 4-DIMETHYL 2-IMIDAZOLIN-2-YL)METHYL]2-METHOXY 4-AMINO 5-CHLOROBENZAMIDE]",inactive,30.4,inactive,–,"Stereotypies in regard to apomorphine, Intraperitoneal (I.P) [3, 7]: inactive"
"CCN1CCN=C1CNC(=O)c1cc(Cl)c(N)cc1O [Example 12, N-[(1-ETHYL 2-IMIDAZOLIN-2-YL)METHYL]2-HYDROXY 4-AMINO 5-CHLOROBENZAMIDE HYDROCHLORIDE]",inactive,59.3,inactive,–,"inhibition in vivo at 54 mg/kg ([3]; Rattus norvegicus, ip, I.P., at 54 mg/kg, read-out: inhibitor effect on stereotypies in regard to apomorphine, Intraperitoneal (I.P)): 2%"
"COc1cc(N)c(Cl)cc1C(=O)NCC1=NCCN1CC1=CCCCC1 [Example 13, N-[1-CYCLOHEXEN-1-YL-METHYL)2-(IMIDAZOLIN-2-YL)METHYL]2-METHOXY 4-AMINO 5-CHLOROBENZAMIDE]",inactive,61.6,inactive,18,–
"CCN1CCN=C1C(C)NC(=O)c1cc(Cl)c(N)cc1OC (stereo not drawn) [Example 14, N-[1-(ethyl 2-imidazolin-2-yl)ethyl]2-methoxy 4-amino 5-chlorobenzamide]",–,14.6,–,–,"Cataleptic Activity (Subcutaneous) ([1]; 80 mg/kg): inactive; Stereotypies in regard to apomorphine, Intraperitoneal (I.P) ([3]; I.P., at 40 mg/kg): inactive; Stereotypies in regard to apomorphine, Subcutaneous (S.C.) ([3]; S.C., at 80 mg/kg): inactive"
"CCN(CC)CCNC(=O)c1cc(Cl)c(N)cc1OC [METOCLOPRAMIDE, Metoclopramide, reference compound]",–,37.9,–,–,"TD50 (in vivo [4]): 30 to 38 mg/kg; ED50 ([3]; Rattus norvegicus, ip, I.P., read-out: ID50, stereotypies in regard to apomorphine, Intraperitoneal (I.P)): 2 to 2.6 mg/kg; ED50 ([3]; Rattus norvegicus, sc, S.C., read-out: ID50, stereotypies in regard to apomorphine, Subcutaneous (S.C.)): 15 to 15.2 mg/kg; antagonism of apomorphine stereotypies (in words) ([3]; same conditions): marked stereotypy inhibitor capacity"

# — patent US4703055A, “Benzamides and therapeutic use thereof” (Societe d'Etudes Scientifiques et Industrielles de …, priority 1985, dated 1987)
